Experiment [1] has as its target T1, Human Calpain 1/NS1 (Homo sapiens, UniProt P07384).
T1 sequence (P07384 1-714): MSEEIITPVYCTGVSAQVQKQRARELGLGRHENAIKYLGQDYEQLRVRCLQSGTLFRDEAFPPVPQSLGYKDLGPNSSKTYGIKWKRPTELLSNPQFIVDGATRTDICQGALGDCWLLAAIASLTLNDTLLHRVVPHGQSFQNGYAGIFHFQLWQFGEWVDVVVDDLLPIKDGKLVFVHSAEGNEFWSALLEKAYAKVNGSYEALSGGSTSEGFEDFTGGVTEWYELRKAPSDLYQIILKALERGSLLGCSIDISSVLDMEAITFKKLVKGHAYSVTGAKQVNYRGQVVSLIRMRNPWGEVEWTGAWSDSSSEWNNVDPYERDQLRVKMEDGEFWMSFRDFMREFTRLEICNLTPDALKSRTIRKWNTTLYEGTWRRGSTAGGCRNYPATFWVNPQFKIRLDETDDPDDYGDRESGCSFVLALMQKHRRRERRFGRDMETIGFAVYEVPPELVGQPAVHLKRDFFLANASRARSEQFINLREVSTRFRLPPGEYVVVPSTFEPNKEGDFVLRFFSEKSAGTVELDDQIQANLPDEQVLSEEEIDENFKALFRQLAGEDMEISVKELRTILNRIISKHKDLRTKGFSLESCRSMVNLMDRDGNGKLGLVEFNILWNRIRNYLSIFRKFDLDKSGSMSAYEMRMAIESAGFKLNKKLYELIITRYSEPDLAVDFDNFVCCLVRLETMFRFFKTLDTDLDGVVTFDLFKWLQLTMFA
T1 sequence (P04632 1-268 partner): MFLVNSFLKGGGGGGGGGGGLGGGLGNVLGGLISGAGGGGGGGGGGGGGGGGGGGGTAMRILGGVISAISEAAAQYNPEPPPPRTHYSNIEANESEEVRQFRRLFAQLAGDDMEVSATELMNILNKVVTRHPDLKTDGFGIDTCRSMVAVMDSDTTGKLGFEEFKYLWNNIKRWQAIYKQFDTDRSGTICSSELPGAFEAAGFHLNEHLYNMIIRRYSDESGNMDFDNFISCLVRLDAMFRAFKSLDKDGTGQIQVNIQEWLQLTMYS
Description: Calpain inhibition continuous fluorescence (FRET) assay, Human Calpain 1/NS1. The conditions noted are these: read-out: Human Calpain 1/NS1 IC50. It counts as biochemical. The essentials: (§1)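 Fluorescence increase from the cleaved 5-FAM/QXL 520 substrate, read at 490/520 nm, gave activity. Calcium was supplied with the substrate to activate the enzyme in situ after a 25C enzyme-inhibitor preincubation, and IC50s were fit from initial slopes.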

Experiment [2] addresses T2, Human Calpain 2/NS1 (Homo sapiens, UniProt P17655).
T2 sequence (P17655 1-700): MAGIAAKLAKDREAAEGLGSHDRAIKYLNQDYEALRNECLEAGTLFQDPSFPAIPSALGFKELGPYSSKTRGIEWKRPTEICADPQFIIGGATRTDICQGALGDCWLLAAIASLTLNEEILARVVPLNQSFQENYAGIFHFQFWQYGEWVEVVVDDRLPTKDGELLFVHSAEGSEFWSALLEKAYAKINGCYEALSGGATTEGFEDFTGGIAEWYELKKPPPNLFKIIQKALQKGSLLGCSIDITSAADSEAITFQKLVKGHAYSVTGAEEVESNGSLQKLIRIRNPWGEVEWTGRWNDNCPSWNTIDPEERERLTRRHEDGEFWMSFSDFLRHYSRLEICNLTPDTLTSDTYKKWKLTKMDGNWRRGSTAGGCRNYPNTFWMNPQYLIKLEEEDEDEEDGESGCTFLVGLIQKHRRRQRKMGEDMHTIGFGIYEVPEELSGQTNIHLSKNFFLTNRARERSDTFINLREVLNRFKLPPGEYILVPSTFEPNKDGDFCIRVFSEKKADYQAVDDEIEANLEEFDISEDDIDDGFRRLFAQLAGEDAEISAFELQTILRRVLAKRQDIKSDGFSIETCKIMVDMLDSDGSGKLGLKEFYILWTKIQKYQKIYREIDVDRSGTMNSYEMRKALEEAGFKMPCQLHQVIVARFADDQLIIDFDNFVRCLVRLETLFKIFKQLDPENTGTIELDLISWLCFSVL
T2 sequence (P04632 1-268 partner): T1 sequence (P04632 1-268 partner)
In words: Calpain inhibition continuous fluorescence (FRET) assay, Human Calpain 2/NS1. It counts as biochemical. The conditions noted are these: read-out: Human Calpain 2/NS1 IC50. The method, boiled down: as §1

Experiment [3] deals with T3, Human Calpain 9/NS1 (Homo sapiens, UniProt O14815).
T3 sequence (O14815 1-690): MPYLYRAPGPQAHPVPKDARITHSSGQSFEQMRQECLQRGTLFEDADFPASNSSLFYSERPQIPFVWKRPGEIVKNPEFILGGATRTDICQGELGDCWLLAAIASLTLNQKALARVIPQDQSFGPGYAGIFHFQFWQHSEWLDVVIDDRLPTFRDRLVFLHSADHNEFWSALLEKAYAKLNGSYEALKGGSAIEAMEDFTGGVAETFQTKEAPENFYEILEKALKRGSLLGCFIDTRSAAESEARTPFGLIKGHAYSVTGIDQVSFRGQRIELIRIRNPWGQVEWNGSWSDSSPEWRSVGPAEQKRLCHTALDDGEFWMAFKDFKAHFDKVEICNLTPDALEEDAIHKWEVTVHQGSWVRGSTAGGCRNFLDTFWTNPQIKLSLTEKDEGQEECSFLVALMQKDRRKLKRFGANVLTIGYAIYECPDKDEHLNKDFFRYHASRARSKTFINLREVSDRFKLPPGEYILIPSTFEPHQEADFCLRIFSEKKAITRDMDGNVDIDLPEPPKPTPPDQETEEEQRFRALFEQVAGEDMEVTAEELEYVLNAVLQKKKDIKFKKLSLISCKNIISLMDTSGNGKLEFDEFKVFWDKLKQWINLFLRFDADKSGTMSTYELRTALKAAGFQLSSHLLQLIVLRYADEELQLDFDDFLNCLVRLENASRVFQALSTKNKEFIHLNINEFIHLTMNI
T3 sequence (P04632 1-268 partner): T1 sequence (P04632 1-268 partner)
In words: Calpain inhibition continuous fluorescence (FRET) assay, Human Calpain 9/NS1. The following applies: read-out: Human Calpain 9/NS1 IC50. The class given is biochemical. The method, boiled down: as §1

The test system of experiment [4] is Calpain activity in SH-SY5Y cells. Description: SH-SY5Y + AMC fluorescence assay (Suc-LLVY-AMC substrate). The class given is cell-based. The conditions noted are these: read-out: SH-SY5Y + AMC IC50.

The structures appear in SMILES notation. pIC50: −log10 of the molar value. Read-outs that look alike come from different tables or passages of the source.

Consider 15 molecules from patent US11339130B1 (Blade Therapeutics, Inc., priority 2016, dated 2022).

Turning to `NC(=O)C(=O)C(Cc1ccccc1)NC(=O)[C@@H]1CC2(CC2)CN1c1ccccc1` (stereo partly drawn) [Compound 411, (6S)—N-(4-amino-3,4-dioxo-1-phenylbutan-2-yl)-5-phenyl-5-azaspiro[2.4]heptane-6-carboxamide], the pIC50 in experiment [1] was greater than 5.52; in experiment [2], greater than 5.52; in experiment [3], greater than 5.52; in experiment [4], 4.60 to 5.00.
With `O=C[C@H](Cc1ccccc1)NC(=O)c1csnc1-c1ccccc1` [Compound 9, (S)—N-(1-oxo-3-phenylpropan-2-yl)-3-phenylisothiazole-4-carboxamide], the pIC50 is greater than 5.52 in experiment [1] (Column A), greater than 5.52 in experiment [2] (Column B), greater than 5.52 in experiment [3] (Column C) and 4.60 to 5.00 in experiment [4] (Column E).
Regarding `Cn1cc(C(=O)N[C@@H](Cc2ccccc2)C(=O)C(N)=O)c(-c2cccc(OC(F)(F)F)c2)n1` [Compound 184, (S)—N-(4-amino-3,4-dioxo-1-phenylbutan-2-yl)-1-methyl-3-(3-(trifluoromethoxy)phenyl)-1H-pyrazole-4-carboxamide], the pIC50 in experiment [1] (Column A) is greater than 5.52; in experiment [2] (Column B), greater than 5.52; in experiment [3] (Column C) it was greater than 5.52; in experiment [4] (Column E), less than 4.60.
On to `Cc1cc(C(=O)N[C@@H](Cc2ccccc2)C(=O)C(=O)NC2CC2)n(-c2nc(-c3ccccc3)cs2)n1` [Compound 203, (S)—N-(4-(cyclopropylamino)-3,4-dioxo-1-phenylbutan-2-yl)-3-methyl-1-(4-phenylthiazol-2-yl)-1H-pyrazole-5-carboxamide], for which the pIC50 in experiment [1] (Column A) was greater than 5.52; in experiment [2] (Column B), greater than 5.52; in experiment [3] (Column C), less than 5.00; in experiment [4] (Column E) it was less than 4.60.
On to `Cc1nc(-c2ccccc2)c(C(=O)N[C@@H](Cc2ccc(OS(=O)(=O)C(F)(F)F)cc2)C(=O)C(N)=O)o1` [Compound 355], for which the pIC50 was greater than 5.52 in experiment [1], greater than 5.52 in experiment [2], greater than 5.52 in experiment [3] and 4.60 to 5.00 in experiment [4].
With `Cc1nc(-c2ccccc2)c(C(=O)N[C@@H](Cc2ccccc2)C(=O)C(N)=O)s1` [Compound 25, (S)—N-(4-amino-3,4-dioxo-1-phenylbutan-2-yl)-2-methyl-4-phenylthiazole-5-carboxamide], the pIC50 is greater than 5.52 in experiment [1] (Column A), greater than 5.52 in experiment [2] (Column B), greater than 5.52 in experiment [3] (Column C) and 4.60 to 5.00 in experiment [4] (Column E).
Take `CNC(=O)CNC(=O)C(=O)[C@H](Cc1ccccc1)NC(=O)c1cn(C)nc1-c1ccccc1` [Compound 336, (S)-1-methyl-N-(4-((2-(methylamino)-2-oxoethyl)amino)-3,4-dioxo-1-phenylbutan-2-yl)-3-phenyl-1H-pyrazole-4-carboxamide]: the pIC50 in experiment [1] was greater than 5.52; in experiment [2] it was greater than 5.52; in experiment [3] it was greater than 5.52; in experiment [4], greater than 5.00.
As for `Cc1cc(C(=O)NC(Cc2ccccc2)C(O)C(N)=O)n(-c2ccnc(Cl)n2)n1` (stereo not drawn) [Compound 434, N-(4-amino-3-hydroxy-4-oxo-1-phenylbutan-2-yl)-1-(2-chloropyrimidin-4-yl)-3-methyl-1H-pyrazole-5-carboxamide], the pIC50 in experiment [1] was less than 5.00; in experiment [2] it was less than 5.00; in experiment [3] it was less than 5.00; in experiment [4], less than 4.60.
`NC(=O)C(=O)[C@H](Cc1ccccc1)NC(=O)c1cc(C2CC2)nn1-c1ccccc1` [Compound 306, (S)—N-(4-amino-3,4-dioxo-1-phenylbutan-2-yl)-3-cyclopropyl-1-phenyl-1H-pyrazole-5-carboxamide]: the pIC50 in experiment [1] is 5.00 to 5.52; in experiment [2] it was 5.00 to 5.52; in experiment [3], 5.00 to 5.52; in experiment [4], greater than 5.00.
On to `Cc1cc(C(=O)N[C@@H](Cc2ccccc2)C(=O)C(N)=O)n(-c2cccc(-c3ccccc3F)c2)n1` [Compound 214, (S)—N-(4-amino-3,4-dioxo-1-phenylbutan-2-yl)-1-(2′-fluoro-[1,1′-biphenyl]-3-yl)-3-methyl-1H-pyrazole-5-carboxamide], for which the pIC50 is greater than 5.52 in experiment [1] (Column A), greater than 5.52 in experiment [2] (Column B), greater than 5.52 in experiment [3] (Column C) and less than 4.60 in experiment [4] (Column E).
As to `Cc1cc(C(=O)N[C@@H](Cc2ccccc2)C(=O)C(N)=O)n(-c2cccc(C(F)(F)F)n2)n1` [Compound 59], the pIC50 in experiment [1] (Column A) is greater than 5.52; in experiment [2] (Column B), greater than 5.52; in experiment [3] (Column C) it was greater than 5.52; in experiment [4] (Column E), greater than 5.00.
Turning to `O=C(NC1CC1)C(=O)C(Cc1ccccc1)NC(=O)c1cc(Cl)nn1-c1ncccn1` (stereo not drawn) [Compound 457, 3-chloro-N-(4-(cyclopropylamino)-3,4-dioxo-1-phenylbutan-2-yl)-1-(pyrimidin-2-yl)-1H-pyrazole-5-carboxamide], the pIC50 in experiment [1] is greater than 5.52; in experiment [2] it was greater than 5.52; in experiment [3], 5.00 to 5.52; in experiment [4], greater than 5.00.
Regarding `NC(=O)C(=O)[C@H](Cc1ccccc1)NC(=O)c1cc(C(F)(F)F)nn1-c1ccccc1` [Compound 305, (S)—N-(4-amino-3,4-dioxo-1-phenylbutan-2-yl)-1-phenyl-3-(trifluoromethyl)-1H-pyrazole-5-carboxamide], the pIC50 in experiment [1] was greater than 5.52; in experiment [2] it was greater than 5.52; in experiment [3], greater than 5.52; in experiment [4] it was greater than 5.00.
On to `Cn1cc(C(=O)NC(Cc2ccccc2)C(=O)C(N)=O)c(-c2ccsc2)n1` (stereo not drawn) [Compound 503, N-(4-amino-3,4-dioxo-1-phenylbutan-2-yl)-1-methyl-3-(thiophen-3-yl)-1H-pyrazole-4-carboxamide], for which the pIC50 in experiment [1] is greater than 5.52; in experiment [2] it was greater than 5.52; in experiment [3] it was greater than 5.52; in experiment [4], 4.60 to 5.00.
`NC(=O)C(=O)[C@H](Cc1ccccc1)NC(=O)c1cc(Cl)nn1-c1ccccc1` [Compound 281, (S)—N-(4-amino-3,4-dioxo-1-phenylbutan-2-yl)-3-chloro-1-phenyl-1H-pyrazole-5-carboxamide]: the pIC50 in experiment [1] (Column A) is greater than 5.52; in experiment [2] (Column B), greater than 5.52; in experiment [3] (Column C) it was greater than 5.52; in experiment [4] (Column E), 4.60 to 5.00.
